Laboratory results reported in publication PMC11597817, “Modulation of Multispecific Transporters by Uncaria tomentosa Extract and Its Major Phytoconstituents” (Pharmaceutics, 2024).

Legend:
Assay in all cases: Antiproliferative MTT assay
Conditions in all cases: 30 μM pure natural product, 72 h
MDA-MB-231 = format: cell-based, human
Experimental: (§1) For the determination of the antiproliferative properties of the prepared extract and selected alkaloids (isopteropodine, mitraphylline, and uncarine D), an MTT assay was applied on our […] cell panel (see Table S4). […] All were maintained in a minimal essential medium completed with 10% fetal bovine serum, 1% non-essential amino acids, and 1% penicillin–streptomycin at 37 °C in a humidified atmosphere containing 5% CO2. All cell lines were purchased from the European Collection of Cell Cultures (Salisbury, UK), except for SiHa and C33A, which were from the American Tissue Culture Collection, LGC Standards GmbH (Wesel, Germany). Cell culture media and supplements were obtained from Lonza Group Ltd. (Basel, Switzerland). Cells were seeded into 96-well plates (C33A 10,000/well, all others 5000/well); after overnight incubation, the test substances were added and incubated for another 72 h under cell-culturing conditions. Uncaria tomentosa extract and the alkaloids were tested in the 1–90 μg/mL and 1–30 μM ranges, respectively. Finally, 20 μL of 5 mg/mL MTT solution was added to each well and incubated for 4 h; the medium was discarded, and the precipitated formazan crystals were dissolved in DMSO for 60 min with shaking. The absorbance was determined using a microplate reader (SPECTROstar Nano, BMG Labtech GmbH). Two independent experiments were performed with five parallels for each condition. Cisplatin, a clinically used anticancer agent (Ebewe GmbH, Unterach, Austria), was included as a reference compound. Calculations were conducted using the GraphPad Prism 10.0 software (GraphPad Software Inc., San Diego, CA, USA).
(§2) Table S4 – Antiproliferative properties of Uncaria tomentosa extract, three natural products (isopteropodine, mitraphylline, and uncarine D) and the
(§3) reference agent cisplatin.
(§4) Cell line Uncaria tomentosa isopteropodine mitraphylline uncarine D [95% confidence
(§5) 1: The highest applied concentration was 90 μg/mL and 30 μM for the extract and the pure natural products, respectively.
(§6) 2: Inhibitions less than 20% compared to the untreated control were regarded as negligible and were not given numerically.

T47D = format: cell-based, human
Experimental: as §1, §2, §3, §4, §5, §6

HeLa = format: cell-based, human
Experimental: as §1, §2, §3, §4, §5, §6

C33A = format: cell-based, human
Experimental: as §1, §2, §3, §4, §5, §6

HEK293-Mock = format: cell-based, human
Experimental: as §1, §2, §3, §4, §5, §6

MCF7 = format: cell-based, human
Experimental: as §1, §2, §3, §4, §5, §6

HEK293-Mock-B = format: cell-based, human
Experimental: as §1, §2, §3, §4, §5, §6

SiHa = format: cell-based, human
Experimental: as §1, §2, §3, §4, §5, §6

A2780 = format: cell-based, human
Experimental: as §1, §2, §3, §4, §5, §6

NIH/3T3 = format: cell-based, murine
Experimental: as §1, §2, §3, §4, §5, §6

Structure (SMILES)	Cell growth inhibition at the highest concentration (% ± SEM) (MDA-MB-231)	Cell growth inhibition at the highest concentration (% ± SEM) (T47D)	Cell growth inhibition at the highest concentration (% ± SEM) (HeLa)	Cell growth inhibition at the highest concentration (% ± SEM) (C33A)	Cell growth inhibition at the highest concentration (% ± SEM) (HEK293-Mock)	Cell growth inhibition at the highest concentration (% ± SEM) (MCF7)	Cell growth inhibition at the highest concentration (% ± SEM) (HEK293-Mock-B)	Cell growth inhibition at the highest concentration (% ± SEM) (SiHa)	Cell growth inhibition at the highest concentration (% ± SEM) (A2780)	Cell growth inhibition at the highest concentration (% ± SEM) (NIH/3T3)
COC(=O)C1=CO[C@@H](C)[C@@H]2CN3CC[C@@]4(C(=O)Nc5ccccc54)[C@@H]3C[C@H]12 [isopteropodine]	< 20%	< 20%	< 20%	< 20%	< 20%	< 20%	< 20%	27.38 ± 2.72%	< 20%	< 20%
COC(=O)C1=CO[C@@H](C)[C@H]2CN3CC[C@]4(C(=O)Nc5ccccc54)[C@@H]3C[C@H]12 [mitraphylline]	< 20%	< 20%	< 20%	< 20%	< 20%	< 20%	< 20%	26.22 ± 1.12%	< 20%	< 20%
